From patent publication US6946475B1, “Anticancer calcium channel blockers” (University of Virginia Patent Foundation, priority 1999, dated 2005)

How the values were obtained:
Assay type in all cases: cell-based
[1] = tested on: MIA PaCa-2 (pancreatic cancer cell); test: Measurement of cellular proliferation, MIA PaCa-2 cells; settings: MIA PaCa-2, 48 hours
Procedure: (§1) Measurement of cellular proliferation: LNCaP cells at 2.5×10^4/well or PC3 cells at 5×10^4/well, both in a final volume of 100 μl, were plated in triplicate in standard flat bottom 96 well tissue culture plates in the presence of drug or vehicle (DMSO). Unless otherwise indicated, cells were grown for 48 hours at 37° C. in a CO2 incubator. Relative cell growth was determined with the CellTiter 96 aqueous cell proliferation assay (Promega, Madison, Wis.) as described by the manufacturer using an automated plate reader. Results were calculated in a blinded fashion and are means of triplicate determinations.
(§2) For the 48 hour proliferation, cells were cultured with calcium channel antagonists or without calcium channel antagonists. The IC50 values of the calcium channel antagonists were determined.
(§3) Using the measurement cell proliferation assay described hereinabove, the cell lines Jurkat, LNCap (prostate cancer cell), PC-31 (prostate cancer cell), DU145 (prostate cancer cell), MDA-468 (breast cancer cell), MDA-36 (Breast cancer cell), MCF-7 (breast cancer cell), MIA PaCa-2 (pancreatic cancer cell), Hep G2 (liver cancer cell), A549 (non-small cell lung cancer cells), NCI H460 (non-small cell lung cancer cells), HT-29 (colon cancer cell), HCT-116 (colon cancer cell) and SK OV-3 (ovarian cancer cell) were cultured in the presence of TH-1177, TH-1205, TH-1201, TH-2109, TH-2029, TH-2043, TN-2085 and TH-2279.

[2] = tested on: MDA-468 (breast cancer cell); test: Measurement of cellular proliferation, MDA-468 cells; settings: MDA-468, 48 hours
Procedure: as §1, §2, §3

[3] = molecular target: T1, α1G subunit of a calcium channel (Homo sapiens, UniProt O43497); test: Whole cell current recording, Xenopus oocytes transfected with α1G subunit
T1 construct: expressed in transfected cells
T1 sequence (O43497 1-2171 isoform O43497-5): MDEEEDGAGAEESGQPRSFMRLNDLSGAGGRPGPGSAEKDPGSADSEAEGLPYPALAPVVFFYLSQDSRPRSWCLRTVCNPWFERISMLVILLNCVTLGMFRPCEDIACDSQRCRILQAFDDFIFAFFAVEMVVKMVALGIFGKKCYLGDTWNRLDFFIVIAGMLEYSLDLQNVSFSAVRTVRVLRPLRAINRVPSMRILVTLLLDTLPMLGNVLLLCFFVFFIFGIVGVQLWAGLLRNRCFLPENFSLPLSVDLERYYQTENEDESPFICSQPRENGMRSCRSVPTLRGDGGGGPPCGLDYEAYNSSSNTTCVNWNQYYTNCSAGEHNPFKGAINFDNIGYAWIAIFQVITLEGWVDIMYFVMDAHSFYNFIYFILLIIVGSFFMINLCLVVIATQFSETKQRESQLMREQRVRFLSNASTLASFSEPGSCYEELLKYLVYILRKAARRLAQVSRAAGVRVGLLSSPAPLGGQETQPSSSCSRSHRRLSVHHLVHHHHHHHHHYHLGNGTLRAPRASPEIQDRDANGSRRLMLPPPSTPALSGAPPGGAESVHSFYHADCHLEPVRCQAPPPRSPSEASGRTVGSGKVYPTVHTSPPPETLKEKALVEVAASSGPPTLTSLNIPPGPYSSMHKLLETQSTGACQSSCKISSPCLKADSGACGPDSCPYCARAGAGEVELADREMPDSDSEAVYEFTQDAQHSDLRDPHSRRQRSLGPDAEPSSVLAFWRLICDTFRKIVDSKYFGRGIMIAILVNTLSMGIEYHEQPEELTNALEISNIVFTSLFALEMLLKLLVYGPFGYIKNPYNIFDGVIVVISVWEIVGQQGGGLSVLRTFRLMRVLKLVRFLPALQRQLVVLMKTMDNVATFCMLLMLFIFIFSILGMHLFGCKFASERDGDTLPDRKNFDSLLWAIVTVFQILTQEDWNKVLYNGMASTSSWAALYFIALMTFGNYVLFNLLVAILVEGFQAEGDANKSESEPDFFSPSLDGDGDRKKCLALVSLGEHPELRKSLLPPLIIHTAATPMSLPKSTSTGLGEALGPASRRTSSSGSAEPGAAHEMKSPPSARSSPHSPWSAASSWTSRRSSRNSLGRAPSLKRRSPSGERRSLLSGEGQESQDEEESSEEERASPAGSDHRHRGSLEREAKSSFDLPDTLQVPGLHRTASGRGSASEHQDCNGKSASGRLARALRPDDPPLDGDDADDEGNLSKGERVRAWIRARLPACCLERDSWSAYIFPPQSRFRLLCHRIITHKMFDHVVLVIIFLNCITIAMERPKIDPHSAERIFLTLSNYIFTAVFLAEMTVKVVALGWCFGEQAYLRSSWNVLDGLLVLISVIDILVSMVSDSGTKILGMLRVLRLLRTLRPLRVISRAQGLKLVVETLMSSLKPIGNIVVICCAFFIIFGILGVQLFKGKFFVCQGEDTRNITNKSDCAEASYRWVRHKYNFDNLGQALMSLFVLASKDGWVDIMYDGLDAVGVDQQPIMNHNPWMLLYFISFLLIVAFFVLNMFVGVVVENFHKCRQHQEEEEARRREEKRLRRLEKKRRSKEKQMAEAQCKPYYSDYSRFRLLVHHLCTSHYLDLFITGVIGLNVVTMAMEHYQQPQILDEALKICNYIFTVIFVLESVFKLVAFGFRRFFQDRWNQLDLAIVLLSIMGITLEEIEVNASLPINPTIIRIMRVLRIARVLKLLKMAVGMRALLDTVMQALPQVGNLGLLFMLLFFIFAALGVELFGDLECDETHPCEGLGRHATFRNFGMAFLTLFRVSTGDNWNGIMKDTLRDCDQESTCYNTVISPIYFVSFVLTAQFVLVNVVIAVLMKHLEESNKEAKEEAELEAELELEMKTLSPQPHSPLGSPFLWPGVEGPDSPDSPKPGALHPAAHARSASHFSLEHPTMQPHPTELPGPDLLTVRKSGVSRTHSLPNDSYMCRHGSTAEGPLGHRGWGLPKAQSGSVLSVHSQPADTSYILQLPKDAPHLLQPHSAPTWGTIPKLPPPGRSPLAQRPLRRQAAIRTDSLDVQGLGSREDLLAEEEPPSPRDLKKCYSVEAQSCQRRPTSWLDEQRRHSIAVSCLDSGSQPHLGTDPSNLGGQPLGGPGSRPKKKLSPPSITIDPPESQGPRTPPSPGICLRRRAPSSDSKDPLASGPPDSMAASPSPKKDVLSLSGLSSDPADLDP
Procedure: The procedure of Example 9 was repeated except the cells were transfected with 2 μg of α1G subunit prepared in accordance with the procedure described in Cribbs, et al., FEBS Letters, 66, 54-58 (2000). Here the cells were depolarized using the depolarizing medium of Example 9. When the current reached the maximum level, then 10 μm pH 1177 was added to the medium and the change in current was observed. The current was measured at about zero pA. When the current remained constant, the TH-1177 was washed out, in accordance with the procedure in Example 9 and the change in the current value was again recorded.

[4] = molecular target: T2, α1H subunit of a calcium channel of a human heart (Homo sapiens, UniProt O95180); test: Whole cell current recording, Xenopus oocytes transfected with α1H subunit
T2 construct: expressed in transfected cells; host or cells: Xenopus oocytes (so in the source), pcDNA3 plasmid
T2 sequence (O95180 whole entry): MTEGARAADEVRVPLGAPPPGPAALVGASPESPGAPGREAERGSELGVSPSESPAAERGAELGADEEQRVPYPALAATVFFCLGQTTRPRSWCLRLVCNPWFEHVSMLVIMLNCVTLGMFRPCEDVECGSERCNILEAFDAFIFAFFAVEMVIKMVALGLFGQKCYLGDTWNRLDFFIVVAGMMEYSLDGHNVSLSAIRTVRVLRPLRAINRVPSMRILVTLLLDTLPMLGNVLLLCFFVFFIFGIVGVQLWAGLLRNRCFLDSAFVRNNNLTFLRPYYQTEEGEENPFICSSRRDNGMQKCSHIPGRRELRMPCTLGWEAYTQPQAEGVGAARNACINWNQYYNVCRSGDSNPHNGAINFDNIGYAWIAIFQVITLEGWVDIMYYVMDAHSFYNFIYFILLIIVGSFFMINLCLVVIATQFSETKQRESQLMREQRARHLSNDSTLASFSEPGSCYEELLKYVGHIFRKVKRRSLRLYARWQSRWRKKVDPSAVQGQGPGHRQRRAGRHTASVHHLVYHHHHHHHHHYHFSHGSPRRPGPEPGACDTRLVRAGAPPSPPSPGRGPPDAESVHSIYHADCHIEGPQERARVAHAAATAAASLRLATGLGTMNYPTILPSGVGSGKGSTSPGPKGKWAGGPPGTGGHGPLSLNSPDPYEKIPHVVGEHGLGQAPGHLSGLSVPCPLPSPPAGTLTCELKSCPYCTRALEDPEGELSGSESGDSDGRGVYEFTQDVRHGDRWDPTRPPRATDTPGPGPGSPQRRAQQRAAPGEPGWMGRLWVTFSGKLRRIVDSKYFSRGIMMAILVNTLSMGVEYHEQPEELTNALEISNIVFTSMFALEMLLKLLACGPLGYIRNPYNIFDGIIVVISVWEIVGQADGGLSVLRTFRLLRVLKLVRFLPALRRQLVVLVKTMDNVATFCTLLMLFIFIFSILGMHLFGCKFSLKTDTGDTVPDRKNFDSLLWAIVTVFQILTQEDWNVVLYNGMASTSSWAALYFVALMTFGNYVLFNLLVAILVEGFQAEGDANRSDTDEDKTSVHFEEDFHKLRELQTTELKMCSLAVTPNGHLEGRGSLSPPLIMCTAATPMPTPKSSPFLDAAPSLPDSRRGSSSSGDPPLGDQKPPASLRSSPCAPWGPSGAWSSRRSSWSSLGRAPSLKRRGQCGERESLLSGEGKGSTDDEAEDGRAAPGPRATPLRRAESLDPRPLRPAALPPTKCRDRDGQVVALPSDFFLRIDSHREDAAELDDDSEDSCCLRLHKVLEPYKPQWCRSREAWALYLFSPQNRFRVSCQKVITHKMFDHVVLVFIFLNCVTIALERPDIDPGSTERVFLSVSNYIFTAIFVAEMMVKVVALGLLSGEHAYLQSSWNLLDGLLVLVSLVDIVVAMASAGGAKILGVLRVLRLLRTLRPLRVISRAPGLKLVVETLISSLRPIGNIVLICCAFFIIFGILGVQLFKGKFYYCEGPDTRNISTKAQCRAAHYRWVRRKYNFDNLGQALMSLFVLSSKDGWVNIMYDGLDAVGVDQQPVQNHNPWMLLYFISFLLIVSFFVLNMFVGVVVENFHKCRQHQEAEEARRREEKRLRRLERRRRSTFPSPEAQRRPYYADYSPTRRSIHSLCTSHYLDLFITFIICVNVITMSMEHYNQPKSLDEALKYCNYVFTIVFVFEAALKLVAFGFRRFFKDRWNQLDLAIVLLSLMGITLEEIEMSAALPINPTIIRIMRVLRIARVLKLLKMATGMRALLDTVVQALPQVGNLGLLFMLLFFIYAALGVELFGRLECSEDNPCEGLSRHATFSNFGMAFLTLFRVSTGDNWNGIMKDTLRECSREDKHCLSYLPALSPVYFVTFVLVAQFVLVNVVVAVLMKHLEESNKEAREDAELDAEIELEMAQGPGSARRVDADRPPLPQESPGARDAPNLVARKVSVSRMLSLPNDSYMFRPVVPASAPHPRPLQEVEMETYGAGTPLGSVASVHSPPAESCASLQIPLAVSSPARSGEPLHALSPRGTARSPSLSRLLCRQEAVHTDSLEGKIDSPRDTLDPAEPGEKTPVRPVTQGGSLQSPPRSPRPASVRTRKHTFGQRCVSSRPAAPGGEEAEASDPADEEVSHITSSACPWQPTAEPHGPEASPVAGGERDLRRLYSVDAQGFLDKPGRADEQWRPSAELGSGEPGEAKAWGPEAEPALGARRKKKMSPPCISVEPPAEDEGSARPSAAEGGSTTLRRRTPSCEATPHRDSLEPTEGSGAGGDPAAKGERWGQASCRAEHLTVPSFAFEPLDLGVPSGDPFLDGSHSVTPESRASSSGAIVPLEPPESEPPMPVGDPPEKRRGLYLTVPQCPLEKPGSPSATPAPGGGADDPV
Source text: Xenopus oocytes were transfected with the α1H subunit of a calcium channel of a human heart prepared in accordance with the procedure described by Cribbs, et al. in Circulation Research, 1998, 83, 103-109, the contents of which are incorporated by reference. The α1H plasmid was obtained by cloning the α1H sequence into the EcoRV-X baI site of the transfection vector pcDNA3, in accordance with the procedure described in the Cribbs, et al. article. Xenopus oocyte cells (1×10^5 per 35 mm dish) were transfected with 2 μg of alpha 1H-Tx plasmid. […] The internal pipette solution contained (mmol/L) CsCl 55, CS SO3 75, MgCl2 10, EGTA 0.1, and HEPES 10 (pH adjusted to 7.2 with (CsOH). Currents were recorded using an Axopatch 200A, a Digidata 1200 A/D converter and pCLAMP software (Axon Instruments, Inc.).
The current of the cell in the depolarized cell was recorded over time (control). Within a few minutes after the control plot was recorded, the cells were again depolarized, but this time, the bath contained in addition 10 μM TH-1177. The current was recorded for the same length of time as the control. The current was recorded at about zero pA. Then the cells in the bath containing 10 μM TH-1177 were depolarized again, but this time the bath medium containing TH-1177 was aspirated out and replaced with fresh calcium medium depolarizing medium and the current was measured.

[5] = tested on: Hep G2 (liver cancer cell); test: Measurement of cellular proliferation, Hep G2 cells; settings: Hep G2, 48 hours
Procedure: as §1, §2, §3

[6] = tested on: HT-29 (colon cancer cell); test: Measurement of cellular proliferation, HT-29 cells; settings: HT-29, 48 hours
Procedure: as §1, §2, §3

[7] = tested on: SK OV-3 (ovarian cancer cell); test: Measurement of cellular proliferation, SK OV-3 cells; settings: SK-OV-3, 48 hours
Procedure: as §1, §2, §3

IC50 [1]: 17 µM
IC50 [2]: 13 µM
Current in depolarized α1G-transfected cells ([3]; 10 μm added at maximum current): about zero
Ability of calcium to cross the cell membrane ([3]; α1G-transfected Xenopus oocytes, restored on washout): completely inhibits
Current in depolarized α1H-transfected cells ([4]; 10 μM TH-1177 in bath): about zero
Ability of calcium to cross the cell membrane ([4]; α1H-transfected Xenopus oocytes, 10 μM, restored on washout): inhibits
IC50 [5]: 32 µM
IC50 [6]: ~100 µM
IC50 [7]: 25 µM
Structure (SMILES): COc1ccc(CCN2CCC[C@H]2COC(c2ccccc2)c2ccc(Cl)cc2)cc1 (stereo partly drawn) [TH-1177]
